Patent US20080039513A1, “Marine Compounds with Calcium Channel Blocking Properties for the Treatment of Cognitive or Neurodegenerative Diseases” (priority 2004, published 2008)
Like-named read-outs stand apart in the source and are kept apart here.

Key:
[1] = test system: human neuroblastoma cell line SH-SY5Y; assay type: cell-based; details: for Toxicity (in words): at 10 μM
Method: The cytotoxicity effect of the molecules was tested in the human neuroblastoma cell line SH-SY5Y. These cells were cultured in 96-well plates in minimum essential medium, Ham's F12 medium, supplemented with 10% fetal bovine serum, 1% glutamine and 1% penicillin/streptomycin, and grown in a 5% CO2 humidified incubator at 37° C. Cells were plated at 10^4 cells for each well, at least, 48 hours before treatment. Cells were exposed for 24 hours to the compounds at different concentrations (from 10^−5 to 10^−9), quantitative assessment of cell death was made by measurement of the intracellular enzyme lactate dehydrogenase (LDH) (citotoxicity detection kit, Roche). The quantity of LDH was measured was evaluated in a microplate reader Anthos 2010, at 492 and 620 nm. Controls were taken as 100% viability.

[2] = target: T1, AChE (from bovine erythrocytes) (Bos taurus, UniProt P23795); test: AChE inhibition (Ellman colorimetric method); assay type: biochemical; details: read-out: % inhibition AChE (concentration); for inhibition at 30 µM: 3 × 10^−5 M
T1 construct: AChE (Sigma Chemical Co. from bovine erythrocytes); purchased Sigma Chemical Co; host or cells: bovine erythrocytes
T1 sequence (P23795 31-614 isoform P23795-2 limits assumed): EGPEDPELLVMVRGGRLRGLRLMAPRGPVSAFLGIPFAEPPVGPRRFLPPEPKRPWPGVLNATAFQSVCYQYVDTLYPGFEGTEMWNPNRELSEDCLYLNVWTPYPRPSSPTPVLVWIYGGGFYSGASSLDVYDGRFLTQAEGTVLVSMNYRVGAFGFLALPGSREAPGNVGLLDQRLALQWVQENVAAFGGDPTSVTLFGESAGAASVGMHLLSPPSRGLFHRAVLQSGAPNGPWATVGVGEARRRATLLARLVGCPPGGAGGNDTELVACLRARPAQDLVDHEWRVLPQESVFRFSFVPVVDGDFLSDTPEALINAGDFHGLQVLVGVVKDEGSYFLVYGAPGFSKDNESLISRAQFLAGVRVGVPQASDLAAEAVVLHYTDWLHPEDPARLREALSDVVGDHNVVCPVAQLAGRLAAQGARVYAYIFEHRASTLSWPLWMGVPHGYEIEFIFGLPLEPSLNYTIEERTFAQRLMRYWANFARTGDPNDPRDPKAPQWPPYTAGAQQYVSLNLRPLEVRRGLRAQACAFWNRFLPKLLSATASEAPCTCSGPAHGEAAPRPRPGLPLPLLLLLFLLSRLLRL
Method: AChE inhibitory activity was evaluated at 30° C. by the colorimetric method reported by Ellman (Ellman, G. L. et al., 1961, Biochem Pharmacol, 7, 88-95). The assay solution consisted of 0.1 M phosphate buffer pH 8, 0.3 mM 5,5′-dithiobis (2-nitrobenzoic acid) (DTNB, Ellman's reagent), 0.02 units AChE (Sigma Chemical Co. from bovine erythrocytes), and 0.5 mM acetylthiocholine iodide as the substrate of the enzymatic reaction. The compounds tested were added to the assay solution and pre incubated with the enzyme for 5 min at 30° C. After that period, the substrate was added. The absorbance changes at 405 nm were recorded for 5 min with a microplate reader Digiscan 340T, the reaction rates were compared, and the percent inhibition due to the presence of test compounds was calculated. The reaction rate was calculated with, at least, triplicate measurements, and the percent inhibition due to the presence of test compound was calculated relative to the compound-free control.

[3] = test system: VDCC; test: VDCC blockade: intracellular Ca2+ (Fluo-4) in SH-SY5Y cells on depolarization with 60 mM KCl; assay type: cell-based, human
Method: SH-SY5Y cells were plated at 5×10^5 cells per well into Black/Clear Bottom 96-well culture plate, 48 hours before treatment. Cells were loaded with Fluo-4, 5 μM and pluronic acid, 0.1%, for 30 min at 37° C., 5% CO2, following a incubation of 15 min at RT in Krebs-HEPES solution. Immediately cells are exposed to the samples at different concentrations for 10 min. […] After the treatment, the fluorescence is measured in a Fluostar Optima plate reader (BMG) in response to depolarization with 60 mM KCl. The excitation wavelength was 485 nm, and that of emission 520 nm. […] Three compounds isolated from this extract have shown calcium channel blocking properties in SH-SY5Y neuroblastoma cells.

[4] = target: T2, BuChE from human serum (Homo sapiens, UniProt P06276); test: BuChE inhibition (Ellman colorimetric method); assay type: biochemical
T2 construct: 0.01 units BuChE from human serum; from tissue; host or cells: human serum
Method: BuChE inhibitory activity was evaluated at 30° C. by the colorimetric method reported by Ellman (Ellman, G. L. et al., 1961, Biochem Pharmacol, 7, 88-95). The assay solution consisted of 0.01 units BuChE from human serum, 0.1 M sodium phosphate buffer pH 8, 0.3 mM 5,5′-dithiobis (2-nitrobenzoic acid) (DTNB, Ellman's reagent), and 0.5 mM butyrylthiocholine iodide as the substrate of the enzymatic reaction. Enzyme activity was determined by measuring the absorbance at 405 nm during 5 minutes with a microplate reader Digiscan 340T. The tested compounds were preincubated with the enzyme for 10 minutes at 30° C. The reaction rate was calculated with, at least, triplicate measurements.

[5] = target: T3, AChE peripheral site (Bos taurus, UniProt P23795); test: Propidium competition (fluorescence); assay type: binding; details: 30 μM compound; 5 μM AChE, 20 μM propidium iodide
T3 sequence (P23795 31-613): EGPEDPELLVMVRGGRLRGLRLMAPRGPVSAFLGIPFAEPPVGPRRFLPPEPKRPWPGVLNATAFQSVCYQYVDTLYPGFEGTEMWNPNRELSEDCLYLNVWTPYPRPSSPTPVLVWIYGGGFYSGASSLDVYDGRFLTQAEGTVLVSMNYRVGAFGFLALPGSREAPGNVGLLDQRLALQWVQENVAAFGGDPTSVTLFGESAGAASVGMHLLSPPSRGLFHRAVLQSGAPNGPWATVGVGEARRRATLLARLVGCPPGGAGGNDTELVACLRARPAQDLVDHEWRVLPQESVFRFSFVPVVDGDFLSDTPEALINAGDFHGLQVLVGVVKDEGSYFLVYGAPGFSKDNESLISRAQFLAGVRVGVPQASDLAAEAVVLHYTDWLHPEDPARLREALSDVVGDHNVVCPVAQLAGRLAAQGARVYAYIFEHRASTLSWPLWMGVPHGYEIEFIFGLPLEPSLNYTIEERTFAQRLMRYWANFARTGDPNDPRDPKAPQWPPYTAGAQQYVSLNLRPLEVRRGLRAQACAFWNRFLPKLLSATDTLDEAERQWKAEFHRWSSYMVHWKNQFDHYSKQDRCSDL
Method: Fluorescence was measured in a Fluostar Optima plate reader (BMG). Measurements were carried out in 100 μl solution volume, in 96-well plates. The buffer used was 1 mM Tris/HCl, pH 8.0. 5 μM AChE was incubated, at least 6 hours, with the molecule at different concentrations. 20 μM propidium iodide was added 10 min before fluorescence measurement. The excitation wavelength was 485 mn and that of emission 620 nm.

[6] = SH-SY5Y, 24 hours exposure, LDH

T2 sequence (P06276 29-602): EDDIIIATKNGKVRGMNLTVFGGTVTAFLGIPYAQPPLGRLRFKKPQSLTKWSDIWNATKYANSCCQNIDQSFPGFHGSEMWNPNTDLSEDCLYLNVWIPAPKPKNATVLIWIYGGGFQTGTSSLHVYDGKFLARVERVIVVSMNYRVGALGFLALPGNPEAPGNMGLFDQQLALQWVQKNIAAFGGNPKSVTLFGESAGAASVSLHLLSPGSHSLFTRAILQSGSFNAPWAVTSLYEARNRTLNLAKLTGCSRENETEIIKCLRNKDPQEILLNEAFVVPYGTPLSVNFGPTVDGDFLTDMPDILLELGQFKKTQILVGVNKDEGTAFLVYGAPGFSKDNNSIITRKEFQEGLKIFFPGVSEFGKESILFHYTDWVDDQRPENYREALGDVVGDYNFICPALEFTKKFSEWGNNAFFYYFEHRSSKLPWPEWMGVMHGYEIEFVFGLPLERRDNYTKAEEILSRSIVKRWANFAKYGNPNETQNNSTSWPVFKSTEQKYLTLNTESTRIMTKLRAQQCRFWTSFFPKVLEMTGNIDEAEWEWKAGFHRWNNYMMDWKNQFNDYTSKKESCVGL

## COC1=C(Br)[C@@H](O)[C@]2(C=C1Br)CC(C(=O)NCCCOc1c(Br)cc(C/C(=N\O)C(=O)NCCc3cnc[nH]3)cc1Br)=NO2 [Compound 8]
[1]; [6]
  Toxicity (in words): Not toxic
[2]
  inhibition at 100 µM: 0%
[3]; 10^−5 M
  % inhibition VDCC (concentration): 96 ± 3%
[3]; 10^−6 M
  % inhibition VDCC (concentration): 48%
[3]; 10^−7 M
  % inhibition VDCC (concentration): 9%

## COC1=C(Br)[C@@H](O)[C@]2(C=C1Br)CC(C(=O)NCCc1cnc[nH]1)=NO2 [Compound 6]
[1]; [6]
  Toxicity (in words): Not toxic
[2]; 10^−4 M
  inhibition at 100 µM: 0%
[3]; 10^−5 M
  % inhibition VDCC (concentration): 18 ± 10%

## COC1=C(Br)[C@H](O)[C@@]2(C=C1Br)CC(C(=O)NCCCCCNC(=O)C1=NO[C@]3(C=C(Br)C(OC)=C(Br)[C@@H]3O)C1)=NO2 [Compound 4, Homoaerothionin]
[4]
  inhibition at 30 µM: 10 ± 1%
[1]; [6]
  Toxicity: 6 µM
[5]
  Propidium competition (30 μM): YES
[2]
  inhibition at 30 µM: 9 ± 4%
[3]; 1.8 × 10^−5 M
  % inhibition VDCC (concentration): 95 ± 4%

## COC1=C(Br)[C@@H](O)[C@]2(C=C1Br)CC(C(=O)NCCCOc1c(Br)cc(CCN)cc1Br)=NO2 [Compound 7]
[1]; [6]
  Toxicity (in words): Not toxic
[2]; 10^−4 M
  inhibition at 100 µM: 9.5 ± 3%
[2]; 10^−5 M
  inhibition at 10 µM: 5 ± 3%
[3]; 10^−5 M
  % inhibition VDCC (concentration): 67 ± 14.5%

## COC1=C(Br)[C@H](O)[C@](O)(CC#N)C=C1Br [Compound 2, Aeroplysinin-1]
[4]
  inhibition at 30 µM: 0%
[1]; [6]
  Toxicity: 6 µM
[2]
  inhibition at 30 µM: 19 ± 3%
[3]; concentration not given
  % inhibition VDCC (concentration): 0%

## COC1=C(Br)[C@H](O)[C@@]2(C=C1Br)CC(C(=O)NCCCCNC(=O)C1=NO[C@]3(C=C(Br)C(OC)=C(Br)[C@@H]3O)C1)=NO2 [Compound 3, Aerothionin]
[4]
  inhibition at 30 µM: 13 ± 1%
[1]; human, 24 h
  Toxicity: 18 µM
[2]
  inhibition at 30 µM: 12 ± 1%
[3]; 1.8 × 10^−5 M
  % inhibition VDCC (concentration): 75 ± 17%

## COC1=C(Br)[C@@H]2OC(=O)C[C@]2(O)C=C1Br [Compound 1, Aeroplysinin-2]
[4]
  inhibition at 30 µM: 0%
[1]; [6]
  Toxicity: 0.6 µM
[2]
  inhibition at 30 µM: 7 ± 1%
[3]; concentration not given
  % inhibition VDCC (concentration): 0%

## COC1=C(Br)[C@@H](O)[C@]2(C=C1Br)CC(C(=O)NCCc1cc(Br)c(OCCCNC(=O)C3=NO[C@]4(C=C(Br)C(OC)=C(Br)[C@@H]4O)C3)c(Br)c1)=NO2 [Compound 5, 11,19-dideoxyfistularin]
[4]
  inhibition at 30 µM: 57 ± 7%
[1]; [6]
  Toxicity: >100 µM
[5]
  Propidium competition (30 μM): YES
[2]
  inhibition at 30 µM: 63 ± 3%
[3]; 1.8 × 10^−5 M
  % inhibition VDCC (concentration): 34 ± 14%
